This passage reports viability results from paper PMC12040169 (PLOS Biology, 2025).

Molecules are shown by their SMILES.

This data set is described as follows: in vitro. The conditions noted are these: human, hela cells.

In the case of `O=C(Nc1ncnc2c1[nH]c(=O)n2C1CC(O)C(CO)O1)c1ccccc1` (stereo not shown) [CBK201250], the viability – broadly, a read-out of living cells in per cent, often relative to untreated cells – at 28.5 h, 10 µM (% viability) came to 94.6%.

`CC(=O)Nc1ccc(S(=O)(=O)N2CC[C@H](c3nc4ccccc4o3)C2)cc1` [CBK289373]: the viability at 28.5 h, 10 µM (% viability) turned out to be 103%. The same measure, in the same setting: in the case of `COC(=O)c1sc(NC(=O)C2CC2)c(C#N)c1C` [CBK026049] it was 107%; in that of `CC(=O)NS(=O)(=O)c1ccc(NC(=O)CCSc2ccc(C)cc2)cc1` [CBK296141], 88.5%. On to `CC(=O)N1CCN(c2ccc(Oc3ncc(C(F)(F)F)cc3Cl)cc2)CC1` [CBK161650], for which the viability at 28.5 h, 10 µM (% viability) came to 104%.

As to `CC(=O)N[C@H](Cc1c[nH]c2ccccc12)C(=O)N1CC[C@H]2NC(=O)[C@H](Cc3ccccc3)NC(=O)C3(C/C=C/C[C@H]2C1)CCOCC3` [CBK292205], the viability at 28.5 h, 10 µM (% viability) is 89.9%. The same measure, in the same setting: in the case of `Cc1cc(C)n(C(C)CNC(=O)c2cc(C3CC3)on2)n1` (stereo not shown) [CBK283243] it was 103%. As to `CC1CCCCN1Cc1nc2c(c(=O)n(C)c(=O)n2C)n1Cc1ccccc1` (stereo not shown) [CBK269203], where the note is “% viability”, the viability at 28.5 h, 10 µM was 105%.

As for `OC(CNCc1ccc2c(c1)OCO2)COc1ccc(Cl)c(Cl)c1` (stereo not shown) [CBK074649], the viability at 28.5 h, 10 µM (% viability) was 89.3%. As to `Nc1nc(N)nc(Cn2c(-c3nonc3N)nc3ccccc32)n1` [CBK263072], for the setting “% viability”, the viability at 28.5 h, 10 µM is 105%. For the molecule `CCOC(=O)c1cnc2c(C)cc(Cl)cc2c1NCCN(C)C` [CBK264800], the viability at 28.5 h, 10 µM (% viability) was 90.7%. The same measure, in the same setting: in the case of `O=C(NNc1ccc([N+](=O)[O-])cc1)c1cccs1` [CBK261709] it was 92.1%; in that of `COc1ccc(CSc2nc(O)cc(C(F)(F)F)n2)cc1` [CBK001217], 85%; in that of `CCCNC(=O)CSc1ncccc1C(=O)O` [CBK287202], 78.6%. On the same count and under the same terms, the result for `O=C(N[C@H]1CO[C@H]2[C@@H]1OC[C@@H]2Nc1nccc(-c2cccc(F)c2)n1)C1CC1` [CBK289535] reads 99.2%; that for `CCCCc1nc(CS(=O)(=O)C(C)c2nc(C(C)C)no2)cs1` (stereo not shown) [CBK305707], 88.3%; that for `Cc1c(CNC(=O)c2cc(-c3ccncc3)nc3ccc(Cl)cc23)cnn1C` [CBK288627], 99.5%. As for `COC(=O)C1Cc2cc3c(cc2C(c2cc(OC)c(OC)c(OC)c2)N1)OCO3` (stereo not shown) [CBK200104T], the viability at 28.5 h, 10 µM (% viability) turned out to be 65.5%. The same measure, in the same setting: in the case of `Cc1ccc(-c2nn(CCC#N)cc2C(=O)N2CCCCC2)cc1C` [CBK306131] it was 94.4%.

On to `CCOc1cccc(-c2cn3ccnc3c(NCc3cc(OC)c(OC)c(OC)c3)n2)c1` [CBK066717], for which, under “% viability”, the viability at 28.5 h, 10 µM was determined as 96.7%. As for `CC1CN(CCC(=O)O)Cc2cc(Cl)ccc2O1` (stereo not shown) [CBK286899], the viability at 28.5 h, 10 µM (% viability) turned out to be 103%. On the same count and under the same terms, the result for `O=C(N[C@H]1CO[C@H]2[C@@H]1OC[C@@H]2Nc1nccc(-c2cccs2)n1)C1CC1` [CBK289517] reads 95%; that for `Cc1cc(C)n(C(C)CC(=O)NC(C)c2nc3ccccc3s2)n1` (stereo not shown) [CBK281469], 93.2%. The same measure, in the same setting: the result for `CC(=O)c1ccc(-c2nc(NC(=O)c3ccccn3)cnc2-c2cccc(OC(F)(F)F)c2)s1` [CBK036929] reads 107%; that for `COc1ccccc1CN(C)C(C)C(=O)Nc1ccc(NC(C)=O)cc1` (stereo not shown) [CBK305873], 100%. The same measure, in the same setting: the result for `Cc1ccc(S(=O)(=O)N(CC(=O)NCc2ccco2)c2cccc(C)c2)cc1` [CBK264125] reads 93.9%; that for `Cc1[nH]c(=O)[nH]c(=S)c1C(=O)Nc1ccc(C(F)(F)F)cc1` [CBK115510], 96.2%; that for `O=C(NCC(c1cccnc1)N1CCOCC1)c1cnc(-c2ccc(Cl)cc2)c(-c2ccco2)c1` (stereo not shown) [CBK037554], 100%. Consider `COc1ccc(C(=O)OC(C)(C)C)c(-c2nccnc2N2CCCN(C)CC2)c1` [CBK037360], for which the viability at 28.5 h, 10 µM (% viability) is 103%. The same measure, in the same setting: the result for `COc1cc(NC(=O)c2ccc3c(c2)C(=O)N(Cc2cccnc2)C3=O)c(C(=O)O)cc1OC` [CBK266802] reads 88.1%; that for `CN(C)CC(C)(C)CNC(=O)c1cc(-c2ccc(Cl)cc2)on1` [CBK116561], 101%; that for `O=C(c1n[nH]c2ccccc12)N1CCc2ccccc2C1` [CBK200330], 94.4%.

Consider `O=C(Nc1ccc(Cl)cc1)N1CCCCC1CO` (stereo not shown) [CBK156179], for which the viability at 28.5 h, 10 µM (% viability) was 99.5%.

With `O=c1cc(CN2CCC[C@@H]2CN2CCCC2)[nH]c(=O)[nH]1` [CBK149108], the viability at 28.5 h, 10 µM (% viability) was 92.2%. With `Cc1ccc(C23CC4CC(CC(NC(=O)NC(Cc5ccccc5)C(=O)O)(C4)C2)C3)cc1` (stereo not shown) [CBK267423], the viability at 28.5 h, 10 µM (% viability) worked out at 93.7%. Turning to `O=C(O)C1CCCN1C(=O)Nc1ccccc1Cl` (stereo not shown) [CBK161381], under “% viability”, the viability at 28.5 h, 10 µM amounted to 95.8%.

In the case of `OCCOc1ccccc1N1CCOCC1` [CBK001767C], where the note is “% viability”, the viability at 28.5 h, 10 µM came to 116%. Same read-out and setting: the result for `CS(=O)(=O)N1CCc2c([nH]c3ccccc23)C12CCN(Cc1ccccc1)C2` (stereo not shown) [CBK059460] reads 102%; that for `COC(=O)c1cn([C@H]2CO[C@H]3[C@@H]2OC[C@@H]3NS(=O)(=O)Cc2ccccc2)nn1` [CBK289498], 86.9%. On to `C[C@]12CN(C(=O)C3CCCC3)C[C@H]1NC(=O)c1ccccc1C2=O` [CBK281672], for which, for the setting “% viability”, the viability at 28.5 h, 10 µM is 95.4%. Same read-out and setting: in the case of `CCCCSc1nc(N)cc(N2CCC(N3CCOC3=O)CC2)n1` [CBK306974] it was 82.1%; in that of `Cc1cc(NC(=O)c2cccc(C(F)(F)F)c2)c2ccccc2n1` [CBK116263], 90%; in that of `COc1ccc(C2CCCN2C(=O)CC2CCN(C(=O)CC3CCCCC3)CC2)cc1` (stereo not shown) [CBK286263], 102%. On the same count and under the same terms, in the case of `O=C(NC1(C(F)(F)F)NC(=O)N(CCc2ccccc2)C1=O)c1ccco1` (stereo not shown) [CBK267482] it was 89.2%. `CC1CN(C(=O)Oc2ccccc2)C(C)CN1CCCC(c1ccc(F)cc1)c1ccc(F)cc1` (stereo not shown) [CBK024993C]: the viability at 28.5 h, 10 µM was determined as 87.4%. Turning to `CC(NC(=O)N1CCN(c2cc(C(F)(F)F)ccn2)CC1)c1ccccc1` (stereo not shown) [CBK162350], the viability at 28.5 h, 10 µM (% viability) was 91.7%. On to `O=C(Nc1cc2nn(-c3ccccc3)nc2cc1Cl)c1ccc(-c2cccc([N+](=O)[O-])c2)o1` [CBK266271], for which the viability at 28.5 h, 10 µM (% viability) was 94%.

As for `Fc1ccccc1COc1ccccc1CNCCN1CCOCC1` [CBK278222C], the viability at 28.5 h, 10 µM (% viability) turned out to be 96.4%.

Consider `CC(NC(=O)c1n[nH]c2c1CCC2)c1cccnc1` (stereo not shown) [CBK281488], for which the viability at 28.5 h, 10 µM (% viability) stood at 93.7%. `CN1CCN(c2ccc(NC(=O)c3ccc(OCc4ccccc4)cc3)cc2Cl)CC1` [CBK269080]: the viability at 28.5 h, 10 µM (% viability) was found to be 96.2%.

With `N/C(=N\OCC(=O)Nc1ccc(-n2cnnn2)cc1)c1nonc1N` [CBK265331], for the setting “% viability”, the viability at 28.5 h, 10 µM was 104%. The same measure, in the same setting: the result for `Cc1ccc(Cl)cc1NC(=O)CC1NCCNC1=O` (stereo not shown) [CBK267246] reads 97%. On the same count and under the same terms, the result for `Cc1ccc2nsnc2c1NC(=O)COc1ccc([N+](=O)[O-])cc1` [CBK033705] reads 95.6%; that for `COc1ccc(-n2ncc3c2CCCN(C(=O)C2CC2)C3)cc1` [CBK284498], 84.3%. On the same count and under the same terms, the result for `COc1cc(C(C)NC(=O)c2ccc(=O)[nH]n2)ccc1OC1CCCC1` (stereo not shown) [CBK298335] reads 89.7%.
